Test results from patent US20250152627A1, “COMPOSITIONS AND METHODS FOR ENHANCING IMMUNE CELL FUNCTION USING MODIFIED CELLS WITH GLYCOCALYX EDITING ENZYMES” (Cornell University, priority 2021, published 2025).

Key:
Type in all cases: cell-based
1E7 cells = test: Ring-SAIM glycocalyx material thickness, wild-type 1E7 cells; settings: wild-type 1E7 cells, 1,000 ng/mL doxycycline induction; TD139 at 10 μm
Procedure: Silicon wafers with ˜1900 nm thermal oxide (Addison Engineering) were diced into 7 mm by 7 mm chips, and the oxide layer thickness for each chip was measured with a FilMetrics F50-EXR. Prior to use, the chips were then cleaned with 1:1 methanol and hydrochloric acid for 15 minutes, followed by 1 minutes in a plasma cleaner (Harrick Plasma, PDC-001). The chips were incubated with 4% (v/v) (3-mercaptopropyl)trimethoxysilane in absolute ethanol for 30 minutes at room temperature. After washing with absolute ethanol, the chips were subsequently incubated with 4 mM 4-maleimidobutyric acid N-hydroxysuccinimide ester in absolute ethanol for 30 minutes and rinsed with PBS. 50 μg/mL human plasma fibronectin in PBS was incubated with the functionalized chips overnight at 4° C. for conjugation. Cells were seeded onto the chips at 2×10^4 cm^−2 in full culture medium with varying doxycycline concentrations and incubated for 24 hours. Cells expressing different length of Muc1 were labelled with GFP nanobody conjugated to Alexa Fluor 647 in MCF10A growth media for 10 minutes at 37° C. Cells were labelled with MemGlow dye or CellBrite Steady 550 in serum-free, phenol red-free DMEM/F12 for 10 minutes at 37° C. Sample were then rinsed 3× in PBS, inverted into a 35 mm glass-bottom imaging dish containing imaging buffer (MemGlow dye or CellBrite dye: serum-free, phenol red-free DMEM/F12, Alexa Fluor 647-conjugated GFP nanobody: phenol red-free DMEM/F12 supplemented with 5% horse serum, 20 ng/mL EGF, […], 500 ng/mL hydrocortisone, 100 ng/mL cholera toxin and 1× penicillin/streptomycin) and imaged at 37° C. […]
(§1) Scanning angle interference microscopy (SAIM) was conducted on a custom circle-scanning microscope.^40 The core of the setup was an inverted fluorescence microscope (Ti-E, Nikon). […] Fluorescence emission was collected with a quad band filter cube and single band filters (TRF89901-EMv2, Chroma) mounted in a motorized filter wheel (Sutter). […]

[1] = tested on: 1E7 cells overexpressing GCNT1; test: Ring-SAIM glycocalyx material thickness, GCNT1 overexpressing 1E7 cells; settings: 1E7 cells overexpressing GCNT1, treatment with recombinant galectin
Procedure: Silicon wafers with ˜1900 nm thermal oxide (Addison Engineering) were diced into 7 mm by 7 mm chips, and the oxide layer thickness for each chip was measured with a FilMetrics F50-EXR. Prior to use, the chips were then cleaned with 1:1 methanol and hydrochloric acid for 15 minutes, followed by 1 minutes in a plasma cleaner (Harrick Plasma, PDC-001). The chips were incubated with 4% (v/v) (3-mercaptopropyl)trimethoxysilane in absolute ethanol for 30 minutes at room temperature. After washing with absolute ethanol, the chips were subsequently incubated with 4 mM 4-maleimidobutyric acid N-hydroxysuccinimide ester in absolute ethanol for 30 minutes and rinsed with PBS. 50 μg/mL human plasma fibronectin in PBS was incubated with the functionalized chips overnight at 4° C. for conjugation. Cells were seeded onto the chips at 2×10^4 cm^−2 in full culture medium with varying doxycycline concentrations and incubated for 24 hours. […]
as §1

cell surface Muc1 = test: Fluorescence recovery after photobleaching (FRAP) of Muc1-GFP; settings: 1E7 GCNT1 OE with 10 μM recombinant human galectin-1
Procedure: FRAP experiments were performed by using a Zeiss i880 confocal microscope with 63×N.A. 1.4 Oil immersion lens. Five pre-bleached images were firstly taken and photobleaching was performed with 488 nm laser for about 10 seconds to bleach a target area of 2.55 μm×2.55 μm. 1E7 clone (n=11) and 1E7 GCNT1 overexpression (n=10) were used to measure mobile fraction of Muc1-GFP. 10 μM recombinant human galectin-1 was incubated with 1E7 GCNT1 cells for 10 minutes at 37° C. (n=9). Intensity profiles were corrected by normalizing to the time-course decay of GFP signal in non-bleached area by using MATLAB code from Advanced Imaging Center (https://www.mathworks.com/matlabcentral/fileexchange/47327-frap-zip)

Molecule | change of the material thickness of the glycocalyx (1E7 cells) | decrease of glycocalyx thickness compared to untreated cells [1] | effect on mobility and mobile fraction of cell surface Muc1 (cell surface Muc1)
OC[C@H]1O[C@@H](S[C@@H]2O[C@H](CO)[C@H](O)[C@H](n3cc(-c4cccc(F)c4)nn3)[C@H]2O)[C@H](O)[C@@H](n2cc(-c3cccc(F)c3)nn2)[C@H]1O [TD139] | did not significantly change | – | –
recombinant galectin-1: recombinant human galectin-1 (LGALS1) expressed in E. coli | did not significantly change | 19.4 nm | does not significantly affect
recombinant galectin-3: recombinant human galectin-3 (LGALS3) expressed in E. coli | did not significantly change | 9.5 nm | –
